Measured values from US20260198493A1, “HYDRAZIDE COMPOUND AND AGRICULTURAL/HORTICULTURAL FUNGICIDE” (Nippon Soda Co., Ltd., priority 2022, published 2026).

Columns and labels:
Colletotrichum acutatum = assay: Fungicidal effect test against fungi causing apple anthracnose; details: 96 h, read-out: growth inhibition ratio
[1] = tested on: Erysiphe graminis f.sp.tritici; assay: Control test of wheat powdery mildew disease (sprayed young wheat seedlings); type: in vivo; details: Blumeria graminis, 144 h, 125 ppm by mass spray, six days after inoculation
From the text: [formula] […] Then, the drug liquid was sprayed onto young wheat seedlings cultivated in a nursery pot (variety “Chihoku”, one-to two-leaf stage), and then air-dried. Thereafter, conidiospores of fungi causing wheat powdery mildew disease (Erysiphe graminis f.sp.tritici) were sprinkled on the young wheat seedlings to inoculate them (treated area). As a control, the conidiospores of fungi causing wheat powdery mildew disease (Erysiphe graminis f.sp.tritici) were sprinkled on young wheat seedlings unsprayed with the drug liquid (untreated area). They were left still in a greenhouse at 20° C. Six days after inoculation, leaves of young wheat seedlings were visually observed, and the lesion area ratio was determined to calculate the control value in a similar manner to the previous test.

Glomerella cingulata = assay: Fungicidal effect test against fungi causing grape ripe rot disease; details: Colletotrichum gloeosporioides, 72 h, read-out: growth inhibition ratio
Botrytis cinerea [2] = assay: Control test of cucumber gray mold (sprayed young cucumber seedlings); type: in vivo; details: 96 h, four days after inoculation; for pest or weed control at 125 ppm: 125 ppm by mass spray; for pest or weed control at 25 ppm: 25 ppm by mass spray
Description: Then, the drug liquid was sprayed onto young cucumber seedlings cultivated in a nursery pot (variety “Jihai”-based, cotyledon stage), and then air-dried. […] They were left still in a moist room at 20° C. Four days after inoculation, leaves of the young cucumber seedlings were visually observed, and the control value was calculated from the lesion area ratio in accordance with the following equation. [formula]

Botrytis cinerea [3] = type: cell-based; details: 120 h, 25 ppm by volume, Vogel medium, 20° C., five days, dark, read-out: growth inhibition ratio
Venturia inaequalis = assay: Control test of apple scab disease (sprayed young apple seedlings); type: in vivo; details: 125 ppm by mass spray, 12 to 14 days after inoculation
Description: [formula] […] Then, the drug liquid was sprayed onto young apple seedlings cultivated in a nursery pot (variety “Orin”, three-to four-leaf stage), and then air-dried. Thereafter, conidiospores of fungi causing apple scab disease (Venturia inaequalis) were inoculated thereon (treated area). As a control, the conidiospores were inoculated in a similar manner to the above on young apple seedlings unsprayed with the drug liquid (untreated area). They were left still at 20° C. in a moist room with light and dark cycles repeated every 12 hours. 12 Days to 14 days after inoculation, leaves of young apple seedlings were visually observed, and the control value was calculated from the lesion area ratio in accordance with the equation used in the control test of cucumber gray mold.

CC(=O)N(Cc1ccc(Cl)cc1Cl)NC(=O)c1cc(C)nnc1Oc1cccc(C2CC2)c1F [b-13]
≥ 75%: inhibition of growth at 25 ppm (Colletotrichum acutatum) | pest or weed control at 125 ppm [1] | inhibition of growth at 25 ppm (Glomerella cingulata) | pest or weed control at 125 ppm (Botrytis cinerea [2]) | inhibition of growth at 25 ppm (Botrytis cinerea [3])

Cc1ccc(CN(NC(=O)c2cc(C)nnc2Oc2cccc(C3CC3)c2F)S(C)(=O)=O)c(C)c1 [b-26, N′-(3-(3-cyclopropyl-2-fluorophenoxy)-6-methylpyridazine-4-carbonyl)-N-(2,4-dimethylbenzyl)methanesulfonohydrazide]
≥ 75%: pest or weed control at 125 ppm (Venturia inaequalis) | inhibition of growth at 25 ppm (Colletotrichum acutatum) | inhibition of growth at 25 ppm (Glomerella cingulata) | inhibition of growth at 25 ppm (Botrytis cinerea [3])

COC(=O)N(Cc1ccc(C)cc1C)NC(=O)c1cc(C)nnc1Oc1cccc(Cl)c1Br [b-35]
≥ 75%: pest or weed control at 125 ppm (Venturia inaequalis) | inhibition of growth at 25 ppm (Botrytis cinerea [3])

Cc1ccc(CN(NC(=O)c2cc(C)nnc2Oc2cccc(C3CC3)c2F)C(=O)C2COC2)c(C)c1 [b-40]
≥ 75%: inhibition of growth at 25 ppm (Colletotrichum acutatum) | pest or weed control at 125 ppm [1] | inhibition of growth at 25 ppm (Glomerella cingulata) | inhibition of growth at 25 ppm (Botrytis cinerea [3])

CCc1cccc(Oc2nnc(C)cc2C(=O)NN(Cc2ccc(C)cc2C)C(=O)OC)c1 [b-50]
≥ 75%: inhibition of growth at 25 ppm (Colletotrichum acutatum) | pest or weed control at 125 ppm [1] | inhibition of growth at 25 ppm (Glomerella cingulata) | pest or weed control at 125 ppm (Botrytis cinerea [2]) | inhibition of growth at 25 ppm (Botrytis cinerea [3])

CCc1ccc(Oc2nnc(C)cc2C(=O)NN(Cc2ccc(C)cc2C)C(=O)OC)cc1 [b-51]
≥ 75%: inhibition of growth at 25 ppm (Colletotrichum acutatum) | pest or weed control at 125 ppm [1] | inhibition of growth at 25 ppm (Glomerella cingulata) | inhibition of growth at 25 ppm (Botrytis cinerea [3])

CC(=O)C(=O)N(Cc1ccc(C)cc1C)NC(=O)c1cc(C)nnc1Oc1cccc(C2CC2)c1F [b-58, 3-(3-Cyclopropyl-2-fluorophenoxy)-N′-(2,4-dimethylbenzyl)-6-methyl-N′-(2-oxopropanoyl)pyridazine-4-carbohydrazide]
≥ 75%: inhibition of growth at 25 ppm (Colletotrichum acutatum) | pest or weed control at 125 ppm [1] | inhibition of growth at 25 ppm (Glomerella cingulata) | pest or weed control at 125 ppm (Botrytis cinerea [2]) | inhibition of growth at 25 ppm (Botrytis cinerea [3])

COC(=O)N(Cc1ccc(C)cc1C)NC(=S)c1cc(C)nnc1Oc1cccc(C2CC2)c1F [b-59, Methyl 2-(3-(3-cyclopropyl-2-fluorophenoxy)-6-methylpyridazine-4-carbonothioyl)-1-(2,4-dimethylbenzyl)hydrazine-1-carboxylate]
≥ 75%: inhibition of growth at 25 ppm (Colletotrichum acutatum) | inhibition of growth at 25 ppm (Glomerella cingulata) | pest or weed control at 125 ppm (Botrytis cinerea [2]) | inhibition of growth at 25 ppm (Botrytis cinerea [3])

COC(=O)N(Cc1ccc(C)nc1C)NC(=O)c1cc(C)nnc1Oc1cccc(C2CC2)c1F [b-60]
≥ 75%: inhibition of growth at 25 ppm (Colletotrichum acutatum) | pest or weed control at 125 ppm [1] | inhibition of growth at 25 ppm (Glomerella cingulata)

COC(=O)N(Cc1ccc(C)cc1C)NC(=O)c1cc(C)nnc1Oc1ccc(C)c(Br)c1 [b-62]
≥ 75%: inhibition of growth at 25 ppm (Colletotrichum acutatum) | pest or weed control at 125 ppm [1] | inhibition of growth at 25 ppm (Glomerella cingulata) | inhibition of growth at 25 ppm (Botrytis cinerea [3])

CC(=O)N(Cc1ccc(C)cc1C)NC(=O)c1nc(C)ncc1Oc1cccc(C2CC2)c1F [b-64]
≥ 75%: inhibition of growth at 25 ppm (Colletotrichum acutatum) | inhibition of growth at 25 ppm (Glomerella cingulata) | pest or weed control at 125 ppm (Botrytis cinerea [2]) | inhibition of growth at 25 ppm (Botrytis cinerea [3])

COC(=O)N(Cc1ccc(C)cc1C)NC(=O)c1cc(C)nnc1Oc1cccc(C#N)c1F [b-69]
≥ 75%: inhibition of growth at 25 ppm (Colletotrichum acutatum) | pest or weed control at 125 ppm [1] | inhibition of growth at 25 ppm (Glomerella cingulata) | inhibition of growth at 25 ppm (Botrytis cinerea [3])

COC(=O)N(Cc1ccc2ccccc2c1)NC(=O)c1cc(C)nnc1Oc1cccc(C2CC2)c1F [b-71]
≥ 75%: pest or weed control at 125 ppm (Venturia inaequalis) | inhibition of growth at 25 ppm (Colletotrichum acutatum) | inhibition of growth at 25 ppm (Glomerella cingulata) | inhibition of growth at 25 ppm (Botrytis cinerea [3])

COC(=O)N(NC(=O)c1cc(C)nnc1Oc1cccc(C2CC2)c1F)C(C)c1ccc(C)cc1C (stereo not shown) [b-72]
≥ 75%: inhibition of growth at 25 ppm (Colletotrichum acutatum) | inhibition of growth at 25 ppm (Glomerella cingulata) | pest or weed control at 25 ppm (Botrytis cinerea [2]) | inhibition of growth at 25 ppm (Botrytis cinerea [3])

COC(=O)N(Cc1ccc(C)cc1C)NC(=O)c1cc(Cl)nnc1Oc1ccc2c(c1)CCC2 [b-79]
≥ 75%: pest or weed control at 125 ppm (Venturia inaequalis) | inhibition of growth at 25 ppm (Colletotrichum acutatum) | inhibition of growth at 25 ppm (Glomerella cingulata) | pest or weed control at 125 ppm (Botrytis cinerea [2]) | inhibition of growth at 25 ppm (Botrytis cinerea [3])

COC(=O)N(Cc1ccc(Cl)nc1Cl)NC(=O)c1cc(C)nnc1Oc1cccc(C2CC2)c1F [b-93, Methyl 2-(3-(3-cyclopropyl-2-fluorophenoxy)-6-methylpyridazine-4-carbonyl)-1-((2,6-dichloropyridin-3-yl)methyl)hydrazine-1-carboxylate]
≥ 75%: inhibition of growth at 25 ppm (Colletotrichum acutatum) | pest or weed control at 125 ppm [1] | inhibition of growth at 25 ppm (Glomerella cingulata) | inhibition of growth at 25 ppm (Botrytis cinerea [3])

COC(=O)N(Cc1ccc(OC)cc1C)NC(=O)c1nc(C)ncc1Oc1cccc(C2CC2)c1F [b-105]
≥ 75%: inhibition of growth at 25 ppm (Colletotrichum acutatum) | inhibition of growth at 25 ppm (Glomerella cingulata) | pest or weed control at 25 ppm (Botrytis cinerea [2]) | inhibition of growth at 25 ppm (Botrytis cinerea [3])

COC(=O)N(Cc1ccc(C)cc1C)NC(=O)c1nc(C)nnc1Oc1cccc(C2CC2)c1F [b-115]
≥ 75%: inhibition of growth at 25 ppm (Colletotrichum acutatum) | inhibition of growth at 25 ppm (Glomerella cingulata) | pest or weed control at 25 ppm (Botrytis cinerea [2]) | inhibition of growth at 25 ppm (Botrytis cinerea [3])

COC(=O)N(Cc1sc(C)cc1C)NC(=O)c1cc(C)nnc1Oc1cccc(C2CC2)c1F [b-122, Methyl 2-(3-(3-cyclopropyl-2-fluorophenoxy)-6-methylpyridazine-4-carbonyl)-1-((3,5-dimethylthiophen-2-yl)methyl)hydrazine-1-carboxylate]
≥ 75%: inhibition of growth at 25 ppm (Colletotrichum acutatum) | inhibition of growth at 25 ppm (Glomerella cingulata) | pest or weed control at 125 ppm (Botrytis cinerea [2]) | inhibition of growth at 25 ppm (Botrytis cinerea [3])

COC(=O)N(Cc1ccc(C)cc1C)NC(=O)c1cc(N(C)C)ncc1Oc1cccc(C2CC2)c1F [b-125]
≥ 75%: inhibition of growth at 25 ppm (Colletotrichum acutatum) | pest or weed control at 125 ppm [1] | inhibition of growth at 25 ppm (Glomerella cingulata) | inhibition of growth at 25 ppm (Botrytis cinerea [3])

COC(=O)N(Cc1ccc(OC)cc1C)NC(=O)c1nc(C)nnc1Oc1cccc(C2CC2)c1F [b-130]
≥ 75%: inhibition of growth at 25 ppm (Colletotrichum acutatum) | inhibition of growth at 25 ppm (Glomerella cingulata) | pest or weed control at 25 ppm (Botrytis cinerea [2]) | pest or weed control at 125 ppm (Botrytis cinerea [2]) | inhibition of growth at 25 ppm (Botrytis cinerea [3])

COC(=O)N(Cc1ccc(C)cc1C)NC(=O)c1cc(C)nnc1Oc1cc(C)cc(F)c1 [b-144]
≥ 75%: pest or weed control at 125 ppm (Venturia inaequalis) | inhibition of growth at 25 ppm (Colletotrichum acutatum) | inhibition of growth at 25 ppm (Glomerella cingulata) | inhibition of growth at 25 ppm (Botrytis cinerea [3])

COC(=O)N(Cc1ccc([N+](=O)[O-])cc1C)NC(=O)c1cc(C)nnc1Oc1cccc(C2CC2)c1F [b-162]
≥ 75%: inhibition of growth at 25 ppm (Colletotrichum acutatum) | pest or weed control at 125 ppm [1] | inhibition of growth at 25 ppm (Glomerella cingulata) | inhibition of growth at 25 ppm (Botrytis cinerea [3])

COC(=O)N(Cc1ccc(-c2ccc(F)cc2)cc1)NC(=O)c1cc(C)nnc1Oc1cccc(C2CC2)c1F [b-164]
≥ 75%: pest or weed control at 125 ppm (Venturia inaequalis) | inhibition of growth at 25 ppm (Colletotrichum acutatum) | inhibition of growth at 25 ppm (Glomerella cingulata) | inhibition of growth at 25 ppm (Botrytis cinerea [3])

COC(=O)N(Cc1ccc(Oc2ccccc2)cc1)NC(=O)c1cc(C)nnc1Oc1cccc(C2CC2)c1F [b-165]
≥ 75%: pest or weed control at 125 ppm (Venturia inaequalis) | inhibition of growth at 25 ppm (Colletotrichum acutatum) | inhibition of growth at 25 ppm (Glomerella cingulata) | inhibition of growth at 25 ppm (Botrytis cinerea [3])

COC(=O)N(Cc1ccc(-n2cccn2)cc1)NC(=O)c1cc(C)nnc1Oc1cccc(C2CC2)c1F [b-172]
≥ 75%: pest or weed control at 125 ppm (Venturia inaequalis) | inhibition of growth at 25 ppm (Colletotrichum acutatum) | inhibition of growth at 25 ppm (Glomerella cingulata) | inhibition of growth at 25 ppm (Botrytis cinerea [3])

COC(=O)N(Cc1ccc2ncsc2c1)NC(=O)c1cc(C)nnc1Oc1cccc(C2CC2)c1F [b-173]
≥ 75%: pest or weed control at 125 ppm (Venturia inaequalis) | inhibition of growth at 25 ppm (Colletotrichum acutatum) | inhibition of growth at 25 ppm (Glomerella cingulata)

CSC(=S)N(Cc1ccc(C)cc1C)NC(=O)c1cc(C)nnc1Oc1cccc(C2CC2)c1F [b-174]
≥ 75%: pest or weed control at 125 ppm (Venturia inaequalis) | inhibition of growth at 25 ppm (Colletotrichum acutatum) | inhibition of growth at 25 ppm (Glomerella cingulata)

COC(=O)N(Cc1ccc(C)cc1C)NC(=O)c1cc(-n2cccn2)ncc1Oc1cccc(C2CC2)c1F [b-186]
≥ 75%: pest or weed control at 125 ppm (Venturia inaequalis) | inhibition of growth at 25 ppm (Colletotrichum acutatum) | inhibition of growth at 25 ppm (Glomerella cingulata) | pest or weed control at 25 ppm (Botrytis cinerea [2]) | pest or weed control at 125 ppm (Botrytis cinerea [2]) | inhibition of growth at 25 ppm (Botrytis cinerea [3])

Cc1ccc(CN(NC(=O)c2cc(C)nnc2Oc2cccc(C3CC3)c2F)C(=O)OCC(F)F)c(C)c1 [b-197]
≥ 75%: inhibition of growth at 25 ppm (Colletotrichum acutatum) | inhibition of growth at 25 ppm (Glomerella cingulata) | pest or weed control at 25 ppm (Botrytis cinerea [2]) | pest or weed control at 125 ppm (Botrytis cinerea [2]) | inhibition of growth at 25 ppm (Botrytis cinerea [3])

COC(=O)N(Cc1ccc(C)cc1C)NC(=O)c1c(Oc2cccc(C3CC3)c2)cnn(C(C)C)c1=O [b-224]
≥ 75%: inhibition of growth at 25 ppm (Colletotrichum acutatum) | inhibition of growth at 25 ppm (Glomerella cingulata) | pest or weed control at 125 ppm (Botrytis cinerea [2]) | inhibition of growth at 25 ppm (Botrytis cinerea [3])
